# Patent US20120152149A1, “USE OF 1,3-DIOLS AS BIOCIDES” (BASF SE, priority 2009, published 2012)
# How the values were obtained:
# Format in all cases: cell-based
# P. aeruginosa ATCC 15442 [1] = assay: Suspension test EN 1040, bactericidal activity; settings: 1000 ppm of active substance
# Protocol: (§1) The bactericidal activity of the substances of this invention was carried out in a suspension test corresponding to the European standard EN 1040 and compared with the activities of customary commercial products. For this, only relatively small modifications were made. The substances of the formula (1) were dissolved in water or ethanol to give a 1% strength stock solution. For determining the bactericidal activities, the test mixtures were selected such that 1000 ppm of active substance was present in an aqueous solution. The procedure was the same with the comparison samples. For the results shown in table 2, the test mixtures were inoculated with the following bacterial strains such that the stated germ densities were present in the test mixtures. P. aeruginosa ATCC 15442 1−2×10^7 CFU/ml The test mixtures were incubated at room temperature (22° C.+/−2° C.). After defined contact times, aliquots of 1 ml were taken in order to determine the surviving germ count. For the deactivation of the microbicidal activity of the diols, the aliquots were diluted in 1:10 dilution steps in a solution of TS broth with 10% Tween, 3% lecithin, 0.1% histidines and 0.5% sodium thiosulfate and the 10^−2 and 10^−3 dilution stages were used for determining the surviving germ count. For this purpose, corresponding aliquots were plated out on Caso medium with inhibitor (Merck) and incubated at 37° C. for 24 h. The ascertained surviving germ counts were in each case compared with a mixture containing water (water control) by determining the logarithmic reduction in the surviving germ counts based on the water control.
# S. aureus ATCC 6538 = assay: Suspension test EN 1040, bactericidal activity; settings: 1000 ppm of active substance
# Protocol: as §1, with “S. aureus” for “P. aeruginosa”, “6538” for “15442”
# P. aeruginosa ATCC 15442 [2] = assay: Preservation stress test, example formulation 2 (roll-on deodorant formulation); settings: 1% active substance
# E. coli ATCC 10536 [3] = assay: as above; settings: 1% active substance
# E. coli ATCC 10536 [4] = assay: Suspension test EN 1040, bactericidal activity; settings: 1000 ppm of active substance
# Protocol: as §1, with “E. coli” for “P. aeruginosa”, “10536” for “15442”
Structure (SMILES),Microbicidal activity given as logarithmic reduction in germ count (P. aeruginosa ATCC 15442 [1]; contact time 5 min) [log. red.],Microbicidal activity given as logarithmic reduction in germ count (S. aureus ATCC 6538; contact time 5 min) [log. red.],Microbicidal activity given as logarithmic reduction in germ count (S. aureus ATCC 6538; contact time 30 min) [log. red.],Microbicidal activity given as logarithmic reduction in germ count (S. aureus ATCC 6538; contact time 24 h) [log. red.],Microbicidal activity given as logarithmic reduction in germ count (P. aeruginosa ATCC 15442 [2]; 48 h),Microbicidal activity given as logarithmic reduction in germ count (P. aeruginosa ATCC 15442 [2]; 7 d),Microbicidal activity given as logarithmic reduction in germ count (P. aeruginosa ATCC 15442 [2]; 14 d) [log. Red.],Microbicidal activity given as logarithmic reduction in germ count (E. coli ATCC 10536 [3]; 48 h),Microbicidal activity given as logarithmic reduction in germ count (E. coli ATCC 10536 [3]; 7 d),Microbicidal activity given as logarithmic reduction in germ count (E. coli ATCC 10536 [3]; 14 d) [log. Red.],Microbicidal activity given as logarithmic reduction in germ count (E. coli ATCC 10536 [4]; contact time 5 min) [log. red.],Microbicidal activity given as logarithmic reduction in germ count (E. coli ATCC 10536 [4]; contact time 30 min) [log. red.],Microbicidal activity given as logarithmic reduction in germ count (E. coli ATCC 10536 [4]; contact time 24 h) [log. red.],Microbicidal activity given as logarithmic reduction in germ count (P. aeruginosa ATCC 15442 [2]; 28 d) [log. Red.],Microbicidal activity given as logarithmic reduction in germ count (E. coli ATCC 10536 [3]; 28 d) [log. Red.],Microbicidal activity given as logarithmic reduction in germ count (P. aeruginosa ATCC 15442 [1]; contact time 30 min) [log. red.]
"CCCC(O)CO (stereo not drawn) [1,2-Pentanediol, 1,2-pentanediol, reference compound]",<1,<1,<1,<1,0 log. Red.,3 log. Red.,5,0 log. Red.,1 log. Red.,1,<1,<1,<1,–,–,–
"OCC1(CO)CC2CCC1C2 (stereo not drawn) [2,2-DMNB, 2,2-dimethylolnorbornane]",–,–,–,–,3 log. Red.,5 log. Red.,5,2 log. Red.,≧3 log. Red.,5,–,–,–,5,5,–
"OCC1(CO)CCCC1 [DMCP, 1,1-dimethylolcyclopentane]",–,–,–,–,1 log. Red.,≧3 log. Red.,5,1 log. Red.,3 log. Red.,5,–,–,–,5,5,–
"CC(C)C(C)(CO)CO [IMPD, 2-isopropyl-2-methylpropane-1,3-diol]",–,–,–,–,1 log. Red.,≧3 log. Red.,5,3 log. Red.,5 log. Red.,5,–,–,–,5,5,–
"CCCCCCCCC(C)(CO)CO [OMPD, 2-octyl-2-methylpropane-1,3-diol]",4.5,<1,4.8,>5,≧3 log. Red.,5 log. Red.,5,0 log. Red.,≧3 log. Red.,5,>5,>5,>5,5,5,4.7
"CCCCCC(CO)(CO)CCC [PPPD, 2-pentyl-2-propylpropane-1,3-diol]",3.2,<1,1.5,>5,5 log. Red.,5 log. Red.,5,≧3 log. Red.,5 log. Red.,5,>5,>5,>5,5,5,3.1
